Reference: ChEMBL document CHEMBL3351707, “Discovery and SAR of muscarinic receptor subtype 1 (M1) allosteric activators from a molecular libraries high throughput screen. Part 1: 2,5-dibenzyl-2H-pyrazolo[4,3-c]quinolin-3(5H)-ones as positive allosteric modulators” (Bioorg Med Chem Lett, 2015)
The source made the active and inactive calls. No cut-off for these calls is given here.

Experiments:
Assay type in all cases: functional, cell-based
[1] = molecular target: T1, Muscarinic acetylcholine receptor M1 (Homo sapiens, UniProt P11229); experiment: (§1) Positive allosteric modulator activity at human muscarinic receptor subtype 1 expressed in CHO-K1 cells by calcium mobilization assay
T1 sequence (P11229 whole entry): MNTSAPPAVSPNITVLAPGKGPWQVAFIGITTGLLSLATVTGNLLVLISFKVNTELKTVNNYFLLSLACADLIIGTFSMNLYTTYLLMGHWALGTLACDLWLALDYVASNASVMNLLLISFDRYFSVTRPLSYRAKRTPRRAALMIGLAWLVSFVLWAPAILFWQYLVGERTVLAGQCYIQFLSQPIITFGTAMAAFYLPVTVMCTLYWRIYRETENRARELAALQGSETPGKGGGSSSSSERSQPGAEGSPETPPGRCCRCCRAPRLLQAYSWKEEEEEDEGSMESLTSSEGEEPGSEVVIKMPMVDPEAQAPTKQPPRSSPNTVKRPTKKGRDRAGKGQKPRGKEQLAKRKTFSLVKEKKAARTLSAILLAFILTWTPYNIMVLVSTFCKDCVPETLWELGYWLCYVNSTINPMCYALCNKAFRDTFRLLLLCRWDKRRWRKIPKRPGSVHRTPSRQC

[2] = molecular target: T2, Muscarinic acetylcholine receptor M1 (Homo sapiens) (UniProt P11229); experiment: Positive allosteric modulator activity at human muscarinic receptor subtype 1 expressed in CHO-K1 cells at 30 uM by calcium mobilization assay relative to acetylcholine
T2 sequence (whole entry): T1 sequence (P11229 whole entry)

[3] = molecular target: T2, Muscarinic acetylcholine receptor M1 (Homo sapiens); experiment: as §1
[4] = molecular target: T2, Muscarinic acetylcholine receptor M1 (Homo sapiens); experiment: Positive allosteric modulator activity at human muscarinic receptor subtype 1 expressed in CHO-K1 cells by calcium mobilization assay relative to acetylcholine

| Compound | EC50 ([1]; read-out: EC50) | Emax [2] | EC50 ([1]; cho-k1) | pEC50 [3] | Emax [4] |
| --- | --- | --- | --- | --- | --- |
| O=c1c2cn(Cc3ccccc3)c3ccccc3c-2nn1Cc1ccccn1 | > 10 µM | 59% | – | – | – |
| Cc1ccc(Cn2cc3c(=O)n(Cc4ccc(C)cc4C)nc-3c3ccccc32)cc1 | – | – | Not Active | inactive | inactive |
| Cc1ccc(Cn2nc3c4ccccc4n(Cc4ccncc4)cc-3c2=O)c(C)c1 | 1.55 µM | – | – | – | 82% |
| O=c1c2cn(Cc3ccccc3)c3ccccc3c-2nn1Cc1ccccc1 | – | – | Not Active | inactive | – |
| Cc1ccc(Cn2nc3c4ccccc4n(Cc4ccccc4)cc-3c2=O)cc1 | – | – | Not Active | inactive | – |
| Cc1ccc(Cn2nc3c4ccccc4n(Cc4ccccc4F)cc-3c2=O)c(C)c1 | 0.656 µM | – | – | – | 46% |
| O=c1c2c[nH]c3ccccc3c-2nn1[C@@H]1CCCC[C@H]1O | – | – | Not Active | inactive | – |
| O=c1c2cn(Cc3ccccc3)c3ccccc3c-2nn1Cc1ccc(F)cc1 | – | – | Not Active | inactive | – |
| COc1ccc(Cn2cc3c(=O)n(Cc4ccc(C)cc4C)nc-3c3ccccc32)c(F)c1 | – | – | Not Active | inactive | inactive |
| Cc1ccc(Cn2nc3c4ccccc4n(Cc4ccc(F)cc4)cc-3c2=O)c(C)c1 | 2.02 µM | – | – | – | 47% |
| O=c1c2cn(Cc3ccc(-n4cccn4)cc3)c3ccccc3c-2nn1Cc1ccccc1 | > 10 µM | 50% | – | – | – |
| Cc1ccc(C)c(CN2C(=O)C(=O)c3ccccc32)c1 | – | – | Not Active | – | – |
| O=c1c2cn(Cc3ccccc3)c3ccccc3c-2nn1Cc1ccccc1F | 1.01 µM | – | – | – | 36% |
| O=c1c2cn(Cc3ccccc3)c3ccccc3c-2nn1Cc1ccncc1 | > 10 µM | 54% | – | – | – |
| Cc1cccc(Cn2cc3c(=O)n(Cc4ccc(C)cc4C)nc-3c3ccccc32)c1 | – | – | Not Active | inactive | inactive |
| Cc1ccc(Cn2nc3c4ccccc4n(C)cc-3c2=O)c(C)c1 | – | – | Not Active | inactive | inactive |
| Cc1ccc(Cn2nc3c4ccccc4n(Cc4cccc(F)c4)cc-3c2=O)c(C)c1 | 1.42 µM | – | – | – | 31% |
| Cc1ccc(Cn2nc3c4ccccc4n(Cc4ccc(-n5cccn5)cc4)cc-3c2=O)c(C)c1 | 1.15 µM | – | – | – | 80% |
| COc1ccc(Cn2cc3c(=O)n(Cc4ccc(C)cc4C)nc-3c3ccccc32)cc1 | 0.821 µM | – | – | – | 39% |

| Compound | EC50 ([1]; read-out: EC50) | Emax [2] | EC50 ([1]; cho-k1) | pEC50 [3] | Emax [4] |
| --- | --- | --- | --- | --- | --- |
| Cc1cc(NC(=O)CS(=O)(=O)c2cn(Cc3ccc(-c4cnn(C)c4)nc3)c3cc(F)cc(F)c23)no1 | 0.845 µM | – | – | – | – |
| O=c1c2c[nH]c3ccccc3c-2nn1Cc1ccc(-n2cccn2)cc1 | – | – | Not Active | inactive | – |
| Cc1ccc(Cn2nc3c4ccccc4n(Cc4ccccc4C)cc-3c2=O)c(C)c1 | – | – | Not Active | inactive | inactive |
| Cc1ccc(Cn2nc3c4ccccc4n(Cc4cccnc4)cc-3c2=O)c(C)c1 | 3.66 µM | – | – | – | 75% |
| Cc1cccc(Cn2nc3c4ccccc4n(Cc4ccccc4)cc-3c2=O)c1 | – | – | Not Active | inactive | – |
| Cn1cc(-c2ccc(Cn3cc4c(=O)[nH]nc-4c4ccccc43)c(F)c2)cn1 | 0.6 µM | – | – | – | 89% |
| Cc1ccccc1Cn1nc2c3ccccc3n(Cc3ccccc3)cc-2c1=O | 0.783 µM | – | – | – | 47% |
| Cc1ccc(C)c(Cn2nc3c4ccccc4[nH]cc-3c2=O)c1 | > 30 µM | – | – | – | – |
| Cn1nc2c3ccccc3n(Cc3ccc(-n4cccn4)cc3)cc-2c1=O | 2.43 µM | – | – | – | 88% |
| O=C1C(=O)N(Cc2ccccc2)c2ccccc21 | – | – | – | – | 34% |
| O=c1c2cn(Cc3ccccc3)c3ccccc3c-2nn1Cc1cccc(F)c1 | – | – | Not Active | inactive | – |
| Cn1nc2c3ccccc3n(Cc3ccccc3)cc-2c1=O | > 10 µM | 48% | – | – | – |
| O=c1c2cn(Cc3ccccc3)c3ccccc3c-2nn1Cc1cccnc1 | 6.31 µM | – | – | – | 65% |
| Cc1ccc(Cn2nc3c4ccccc4n(Cc4ccccn4)cc-3c2=O)c(C)c1 | 3.79 µM | – | – | – | 83% |
| Cc1ccc(C)c(Cn2nc3c4ccccc4n(Cc4ccccc4)cc-3c2=O)c1 | 0.473 µM | – | – | – | 40% |
| O=c1[nH]nc2c3ccccc3n(Cc3ccc(-n4cccn4)cc3)cc1-2 | 1.2 µM | – | – | – | 83% |
| Cc1ccc(Cn2nc3c4ccccc4n(Cc4ccc(-c5cnn(C)c5)cc4F)cc-3c2=O)c(C)c1 | 1.94 µM | – | – | – | 74% |
| O=C1C(=O)N(Cc2ccc(-n3cccn3)cc2)c2ccccc21 | – | – | – | – | 61% |
| Cn1cc(-c2ccc(Cn3nc4c5ccccc5[nH]cc-4c3=O)cc2)cn1 | – | – | Not Active | inactive | – |
